Assay results: EPA's CvTdb concentration-time database

Assays:
Rat [1] = experiment: concentration in brain after dosing; conditions: 0.75 h; dosed: 2-Methyltetrahydrofuran; 40 mg/kg; iv; Male; Harlan Sprague Dawley
Rat [2] = experiment: concentration in brain after dosing; conditions: 0.75 h; dosed: 2-Methyltetrahydrofuran; 40 mg/kg; iv; Male; Harlan Sprague Dawley; remark: listed apart in the source
Rat [3] = experiment: concentration in brain after dosing; conditions: 2 min; dosed: 2-Methyltetrahydrofuran; 40 mg/kg; iv; Female; Harlan Sprague Dawley
Rat [4] = experiment: concentration in brain after dosing; conditions: 0.2 h; dosed: 2-Methyltetrahydrofuran; 40 mg/kg; iv; Male; Harlan Sprague Dawley
Rat [5] = experiment: concentration in plasma after dosing; conditions: 0.5 h; dosed: 2-Methyltetrahydrofuran; 40 mg/kg; iv; Female; Harlan Sprague Dawley
Rat [6] = experiment: concentration in plasma after dosing; conditions: 0.2 h; dosed: 2-Methyltetrahydrofuran; 40 mg/kg; iv; Male; Harlan Sprague Dawley
Rat [7] = experiment: concentration in plasma after dosing; conditions: 0.75 h; dosed: 2-Methyltetrahydrofuran; 40 mg/kg; iv; Male; Harlan Sprague Dawley
Rat [8] = experiment: concentration in plasma after dosing; conditions: 7 min; dosed: 2-Methyltetrahydrofuran; 40 mg/kg; iv; Male; Harlan Sprague Dawley
Rat [9] = experiment: concentration in plasma after dosing; conditions: 7 min; dosed: 2-Methyltetrahydrofuran; 40 mg/kg; iv; Male; Harlan Sprague Dawley; remark: listed apart in the source
Rat [10] = experiment: concentration in brain after dosing; conditions: 3 h; dosed: Fluorotelomer alcohol 8+2; 80 mg/kg; oral; Female; Harlan Sprague Dawley
Rat [11] = experiment: concentration in liver after dosing; conditions: 6 h; dosed: Fluorotelomer alcohol 8+2; 80 mg/kg; oral; Female; Harlan Sprague Dawley
Rat [12] = experiment: concentration in brain after dosing; conditions: 3 h; dosed: Fluorotelomer alcohol 8+2; 24 mg/kg; oral; Male; Harlan Sprague Dawley
Rat [13] = experiment: concentration in kidney after dosing; conditions: 12 h; dosed: Fluorotelomer alcohol 8+2; 80 mg/kg; oral; Female; Harlan Sprague Dawley
Rat [14] = experiment: concentration in plasma after dosing; conditions: dosed: Fluorotelomer alcohol 8+2, 12 mg/kg, oral, Male, Harlan Sprague Dawley
Rat [15] = experiment: concentration in plasma after dosing; conditions: dosed: 678-39-7, 12 mg/kg, iv, Male, F344
Rat [16] = experiment: concentration in plasma after dosing; conditions: dosed: 678-39-7, 12 mg/kg, iv, Male, F344; remark: listed apart in the source
Rat [17] = experiment: concentration in plasma after dosing; conditions: dosed: 678-39-7, 40 mg/kg, iv, Male, F344
Rat [18] = experiment: concentration in plasma after dosing; conditions: dosed: Fluorotelomer alcohol 8+2, 12 mg/kg, oral, Male, Harlan Sprague Dawley; remark: listed apart in the source
Rat [19] = experiment: concentration in plasma after dosing; conditions: 6 h; dosed: Gemfibrozil; 100 mg/kg; oral; Male; Sprague-Dawley
Rat [20] = experiment: concentration in plasma after dosing; conditions: 5 min; dosed: Gemfibrozil; 4.29 mg/kg; oral; Male; Sprague-Dawley
Rat [21] = experiment: concentration in plasma after dosing; conditions: 4 h; dosed: Gemfibrozil; 100 mg/kg; oral; Male; Sprague-Dawley
Rat [22] = experiment: concentration in plasma after dosing; conditions: 10 h; dosed: Gemfibrozil; 4.29 mg/kg; oral; Male; Sprague-Dawley
Rat [23] = experiment: concentration in plasma after dosing; conditions: 18 h; dosed: Gemfibrozil; 100 mg/kg; oral; Male; Sprague-Dawley
Rat [24] = experiment: concentration in liver after dosing; conditions: 6 h; dosed: Perfluorohexanoic Acid; 80 mg/kg; oral; Female; Harlan Sprague Dawley
Rat [25] = experiment: concentration in brain after dosing; conditions: 1 h; dosed: Perfluorohexanoic Acid; 80 mg/kg; oral; Male; Harlan Sprague Dawley
Rat [26] = experiment: concentration in liver after dosing; conditions: 1 h; dosed: Perfluorohexanoic Acid; 80 mg/kg; oral; Female; Harlan Sprague Dawley
Rat [27] = experiment: concentration in plasma after dosing; conditions: dosed: Perfluorohexanoic Acid, 40 mg/kg, oral, Male, Harlan Sprague Dawley
Rat [28] = experiment: concentration in plasma after dosing; conditions: 0.75 h; dosed: Perfluorohexanoic Acid; 40 mg/kg; iv; Male; F344
Rat [29] = experiment: concentration in plasma after dosing; conditions: dosed: Perfluorohexanoic Acid, 40 mg/kg, oral, Male, Harlan Sprague Dawley; remark: listed apart in the source
Rat [30] = experiment: concentration in liver after dosing; conditions: 24 h; dosed: Perfluorooctane Sulfonate; 20 mg/kg; oral; Male; Harlan Sprague Dawley
Rat [31] = experiment: concentration in liver after dosing; conditions: 6 h; dosed: Perfluorooctane Sulfonate; 2 mg/kg; oral; Female; Harlan Sprague Dawley
Rat [32] = experiment: concentration in brain after dosing; conditions: 24 h; dosed: Perfluorooctane Sulfonate; 2 mg/kg; oral; Female; Harlan Sprague Dawley
Rat [33] = experiment: concentration in brain after dosing; conditions: 864 h; dosed: Perfluorooctane Sulfonate; 20 mg/kg; oral; Female; F344
Rat [34] = experiment: concentration in kidney after dosing; conditions: 864 h; dosed: Perfluorooctane Sulfonate; 20 mg/kg; oral; Female; F344
Rat [35] = experiment: concentration in kidney after dosing; conditions: 6 h; dosed: Perfluorooctane Sulfonate; 20 mg/kg; oral; Male; Harlan Sprague Dawley
Rat [36] = experiment: concentration in kidney after dosing; conditions: 3360 h; dosed: Perfluorooctane Sulfonate; 20 mg/kg; oral; Male; Harlan Sprague Dawley
Rat [37] = experiment: concentration in kidney after dosing; conditions: 864 h; dosed: Perfluorooctane Sulfonate; 2 mg/kg; oral; Female; Harlan Sprague Dawley
Rat [38] = experiment: concentration in kidney after dosing; conditions: 24 h; dosed: Perfluorooctane Sulfonate; 2 mg/kg; oral; Female; Harlan Sprague Dawley
Rat [39] = experiment: concentration in kidney after dosing; conditions: 3360 h; dosed: Perfluorooctane Sulfonate; 2 mg/kg; oral; Female; Harlan Sprague Dawley

CC1CCCO1 (stereo unspecified) [2-Methyltetrahydrofuran]
Conditions | concentration in brain [ng/mL] | concentration in plasma [ng/mL]
Rat [1] | 11400 | –
Rat [2] | 15400 | –
Rat [3] | 50400 | –
Rat [4] | 25500 | –
Rat [5] | – | 28500
Rat [6] | – | 37000
Rat [7] | – | 23700
Rat [8] | – | 41500
Rat [9] | – | 45700

O=C(O)CCC(F)(F)C(F)(F)C(F)(F)C(F)(F)C(F)(F)C(F)(F)C(F)(F)F [Fluorotelomer acid 7+3]
Conditions | concentration in brain [ng/g] | concentration in kidney [ng/g] | concentration in liver [ng/g]
Rat [10] | 1310 | – | –
Rat [11] | – | – | 7770
Rat [12] | 463 | – | –
Rat [13] | – | 3110 | –

Conditions | concentration in plasma [ng/mL]
Rat [14], 0.5 h | 116
Rat [14], 9 h | 264
Rat [15], 1 h | 502
Rat [15], 6 h | 706
Rat [16], 0.5 h | 127
Rat [16], 9 h | 159
Rat [17], 0.25 h | 115
Rat [17], 6 h | 2200
Rat [18], 0.25 h | 41.6
Rat [18], 6 h | 841

Cc1ccc(C)c(OCCCC(C)(C)C(=O)O)c1 [Gemfibrozil]
Conditions | concentration in plasma [ng/mL]
Rat [19] | 22700
Rat [20] | 893
Rat [21] | 6150
Rat [22] | 189
Rat [23] | 3080

O=C(O)C(F)(F)C(F)(F)C(F)(F)C(F)(F)C(F)(F)F [Perfluorohexanoic Acid]
Conditions | concentration in brain [ng/g] | concentration in liver [ng/g] | concentration in plasma [ng/mL]
Rat [24] | – | 6260 | –
Rat [25] | 2670 | – | –
Rat [26] | – | 39700 | –
Rat [28] | – | – | 15200

concentration in plasma [ng/mL]
Conditions | 0.25 h | 1 h | 6 h | 24 h
Rat [27] | 44500 | – | 26700 | –
Rat [29] | – | 51400 | – | 2400

O=S(=O)([O-])C(F)(F)C(F)(F)C(F)(F)C(F)(F)C(F)(F)C(F)(F)C(F)(F)C(F)(F)F [Perfluorooctane Sulfonate]
Conditions | concentration in brain [ng/g] | concentration in kidney [ng/g] | concentration in liver [ng/g]
Rat [30] | – | – | 157000
Rat [31] | – | – | 25400
Rat [32] | 851 | – | –
Rat [33] | 2700 | – | –
Rat [34] | – | 38400 | –
Rat [35] | – | 72300 | –
Rat [36] | – | 4960 | –
Rat [37] | – | 3490 | –
Rat [38] | – | 5720 | –
Rat [39] | – | 1110 | –
